Results reported in ChEMBL document CHEMBL4177553, “Rapid screening the potential mechanism-based inhibitors of CYP3A4 from Tripterygium wilfordi based on computer approaches combined with in vitro bioassay” (Bioorg Med Chem, 2017).

Assays:
[1] = molecular target: T1, Cytochrome P450 3A4 (Homo sapiens, UniProt P08684); assay: Inhibition of CYP3A4 in human liver microsomes assessed as reduction in formation of midazolam to 1-Hydroxy midazolam at 50 uM preincubated for 30 mins followed by substrate addition measured after 15 mins in presence of NADPH by UPLC-MS analysis; assay type: ADME; settings: 0.25 h
T1 sequence (P08684 whole entry): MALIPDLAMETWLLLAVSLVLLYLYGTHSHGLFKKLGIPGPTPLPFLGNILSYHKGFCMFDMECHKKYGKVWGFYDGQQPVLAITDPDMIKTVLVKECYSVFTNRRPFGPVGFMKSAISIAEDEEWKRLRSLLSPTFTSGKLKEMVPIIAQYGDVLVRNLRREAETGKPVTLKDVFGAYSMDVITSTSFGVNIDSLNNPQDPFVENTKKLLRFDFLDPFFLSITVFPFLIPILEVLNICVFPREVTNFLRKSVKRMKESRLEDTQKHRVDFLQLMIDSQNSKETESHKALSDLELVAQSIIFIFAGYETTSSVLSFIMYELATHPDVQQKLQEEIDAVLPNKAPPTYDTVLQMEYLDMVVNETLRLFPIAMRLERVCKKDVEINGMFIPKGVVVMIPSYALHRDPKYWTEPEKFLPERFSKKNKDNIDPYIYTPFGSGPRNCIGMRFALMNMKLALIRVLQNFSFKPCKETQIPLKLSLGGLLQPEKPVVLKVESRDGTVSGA

[2] = molecular target: Cytochrome P450 2D6 (Homo sapiens, UniProt P10635); assay: Inhibition of CYP2D6 in human liver microsomes assessed as reduction in formation of dextromethorphan to dextrorphan at 50 uM preincubated for 30 mins followed by substrate addition measured after 15 mins in presence of NADPH by UPLC-MS analysis; assay type: ADME; settings: 0.25 h
Cytochrome P450 2D6, sequence (P10635 whole entry): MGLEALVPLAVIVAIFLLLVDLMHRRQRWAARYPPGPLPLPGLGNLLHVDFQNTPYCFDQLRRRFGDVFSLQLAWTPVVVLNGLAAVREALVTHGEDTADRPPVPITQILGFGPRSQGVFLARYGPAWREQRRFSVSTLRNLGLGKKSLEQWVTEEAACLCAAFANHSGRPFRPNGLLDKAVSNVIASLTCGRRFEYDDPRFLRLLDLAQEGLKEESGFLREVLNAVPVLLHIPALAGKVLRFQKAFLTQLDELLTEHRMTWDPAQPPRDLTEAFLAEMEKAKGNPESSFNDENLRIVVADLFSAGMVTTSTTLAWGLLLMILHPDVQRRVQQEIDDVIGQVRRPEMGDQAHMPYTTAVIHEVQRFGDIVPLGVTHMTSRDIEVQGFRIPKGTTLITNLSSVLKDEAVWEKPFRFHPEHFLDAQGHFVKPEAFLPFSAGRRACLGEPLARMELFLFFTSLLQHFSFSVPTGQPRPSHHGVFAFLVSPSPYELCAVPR

[3] = molecular target: T2, Cytochrome P450 1A2 (Homo sapiens, UniProt P05177); assay: Inhibition of CYP1A2 in human liver microsomes assessed as reduction in formation of phenacetin to acetaminophen at 50 uM preincubated for 30 mins followed by substrate addition measured after 15 mins in presence of NADPH by UPLC-MS analysis; assay type: ADME; settings: 0.25 h
T2 sequence (P05177 whole entry): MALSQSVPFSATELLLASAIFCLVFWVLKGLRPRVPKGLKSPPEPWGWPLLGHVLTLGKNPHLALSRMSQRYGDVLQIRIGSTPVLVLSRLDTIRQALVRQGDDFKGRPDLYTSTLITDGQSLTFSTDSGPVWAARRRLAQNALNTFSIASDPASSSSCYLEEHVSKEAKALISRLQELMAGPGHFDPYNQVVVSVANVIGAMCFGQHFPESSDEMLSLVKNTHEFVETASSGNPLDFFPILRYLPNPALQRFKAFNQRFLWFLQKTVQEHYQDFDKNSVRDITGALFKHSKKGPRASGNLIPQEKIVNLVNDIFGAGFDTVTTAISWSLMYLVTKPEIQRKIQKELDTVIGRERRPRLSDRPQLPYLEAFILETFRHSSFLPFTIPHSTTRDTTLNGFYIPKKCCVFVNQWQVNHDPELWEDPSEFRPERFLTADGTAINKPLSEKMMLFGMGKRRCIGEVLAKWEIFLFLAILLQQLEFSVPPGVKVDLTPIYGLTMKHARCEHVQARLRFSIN

[4] = molecular target: Cytochrome P450 2C19 (Homo sapiens, UniProt P33261); assay: Inhibition of CYP2C19 in human liver microsomes assessed as reduction in formation of mephenytoin to 4-Hydroxy mephenytoin at 50 uM preincubated for 30 mins followed by substrate addition measured after 15 mins in presence of NADPH by UPLC-MS analysis; assay type: ADME; settings: 0.25 h
Cytochrome P450 2C19, sequence (P33261 whole entry): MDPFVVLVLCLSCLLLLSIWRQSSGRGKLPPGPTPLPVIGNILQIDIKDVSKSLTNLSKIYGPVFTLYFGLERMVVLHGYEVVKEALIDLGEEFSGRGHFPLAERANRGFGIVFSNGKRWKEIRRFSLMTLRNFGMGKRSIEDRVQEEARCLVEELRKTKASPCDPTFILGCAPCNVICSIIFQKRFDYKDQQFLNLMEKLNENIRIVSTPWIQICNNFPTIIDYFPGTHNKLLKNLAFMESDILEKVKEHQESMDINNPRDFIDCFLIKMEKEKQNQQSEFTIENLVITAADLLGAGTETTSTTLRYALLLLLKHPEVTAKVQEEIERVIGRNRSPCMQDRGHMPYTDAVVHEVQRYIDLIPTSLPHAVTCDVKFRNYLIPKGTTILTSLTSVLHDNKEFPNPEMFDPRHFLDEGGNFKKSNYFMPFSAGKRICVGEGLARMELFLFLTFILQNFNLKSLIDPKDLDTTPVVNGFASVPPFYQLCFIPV

[5] = molecular target: Cytochrome P450 2C9 (Homo sapiens, UniProt P11712); assay: Inhibition of CYP2C9 in human liver microsomes assessed as reduction in formation of tolbutamide to 4-Hydroxytolbutamide at 50 uM preincubated for 30 mins followed by substrate addition measured after 15 mins in presence of NADPH by UPLC-MS analysis; assay type: ADME; settings: 0.25 h
Cytochrome P450 2C9, sequence (P11712 whole entry): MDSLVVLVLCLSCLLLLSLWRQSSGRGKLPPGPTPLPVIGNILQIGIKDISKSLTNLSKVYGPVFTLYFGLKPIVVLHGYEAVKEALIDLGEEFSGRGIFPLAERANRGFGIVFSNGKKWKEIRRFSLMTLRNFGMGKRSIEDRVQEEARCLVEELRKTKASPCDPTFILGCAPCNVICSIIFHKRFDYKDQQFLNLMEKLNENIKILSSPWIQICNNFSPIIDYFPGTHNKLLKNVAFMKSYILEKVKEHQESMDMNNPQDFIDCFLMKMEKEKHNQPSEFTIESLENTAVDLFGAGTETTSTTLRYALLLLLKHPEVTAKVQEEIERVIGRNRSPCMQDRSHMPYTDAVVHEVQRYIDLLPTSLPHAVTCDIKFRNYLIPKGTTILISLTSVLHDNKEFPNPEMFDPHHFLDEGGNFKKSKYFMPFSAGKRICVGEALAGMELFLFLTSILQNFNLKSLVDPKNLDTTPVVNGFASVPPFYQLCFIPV

[6] = molecular target: Cytochrome P450 2E1 (Homo sapiens, UniProt P05181); assay: Inhibition of CYP2E1 in human liver microsomes assessed as reduction in formation of chlorzoxazone to 6-Hydroxy chlorzoxazone at 50 uM preincubated for 30 mins followed by substrate addition measured after 15 mins in presence of NADPH by UPLC-MS analysis; assay type: ADME; settings: 0.25 h
Cytochrome P450 2E1, sequence (P05181 whole entry): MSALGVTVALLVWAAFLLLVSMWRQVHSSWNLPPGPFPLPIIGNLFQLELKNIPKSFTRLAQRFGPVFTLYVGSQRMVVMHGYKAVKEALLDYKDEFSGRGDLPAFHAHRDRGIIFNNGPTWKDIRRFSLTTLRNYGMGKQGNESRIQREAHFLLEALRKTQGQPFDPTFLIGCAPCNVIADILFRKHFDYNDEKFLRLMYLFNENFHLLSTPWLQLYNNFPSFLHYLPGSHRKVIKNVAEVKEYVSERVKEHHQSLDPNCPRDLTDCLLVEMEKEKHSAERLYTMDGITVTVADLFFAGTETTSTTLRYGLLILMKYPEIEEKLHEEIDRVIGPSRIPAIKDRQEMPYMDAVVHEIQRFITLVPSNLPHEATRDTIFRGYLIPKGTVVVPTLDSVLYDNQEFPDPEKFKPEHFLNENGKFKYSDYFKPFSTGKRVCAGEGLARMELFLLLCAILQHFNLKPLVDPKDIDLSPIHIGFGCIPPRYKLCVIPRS

[7] = molecular target: T1, Cytochrome P450 3A4; assay: Drug metabolism in human liver microsomes assessed as CYP3A4-mediated M2 metabolite formation at […] preincubated for 5 mins followed by NADPH addition measured after 2 hrs by UPLC-MS/MS analysis; assay type: ADME
[8] = Drug metabolism in human liver microsomes assessed as monohydroxy formation in presence of GSH and water by UPLC-MS/MS analysis; assay type: ADME, microsome
[9] = molecular target: T1, Cytochrome P450 3A4; assay: Drug metabolism in human liver microsomes assessed as CYP3A4-mediated M1 metabolite formation at […] preincubated for 5 mins followed by NADPH addition measured after 2 hrs by UPLC-MS/MS analysis; assay type: ADME
[10] = Retention time of the compound in human liver microsomes by UPLC-MS/MS analysis; assay type: ADME, microsome
[11] = molecular target: T1, Cytochrome P450 3A4; assay: Inhibition of CYP3A4 in human liver microsomes assessed as reduction in formation of midazolam to 1-Hydroxy midazolam preincubated for 30 mins followed by substrate addition measured after 15 mins in presence of NADPH by UPLC-MS analysis; assay type: ADME; settings: 0.25 h
[12] = molecular target: T1, Cytochrome P450 3A4; assay: Inhibition of CYP3A4 in human liver microsomes assessed as reduction in formation of midazolam to 1-Hydroxy midazolam at 50 uM preincubated for 30 mins followed by substrate addition measured after 15 mins in presence of varying levels of NADPH by UPLC-MS analysis; assay type: ADME; settings: 0.25 h
[13] = molecular target: T1, Cytochrome P450 3A4; assay: Drug metabolism in human liver microsomes assessed as CYP3A4-mediated metabolite formation at […] preincubated for 5 mins followed by NADPH addition measured after 2 hrs by UPLC-MS/MS analysis; assay type: ADME

| Compound | inhibition (INH) [1] | inhibition (INH) [2] | inhibition (INH) [3] | inhibition (INH) [4] | inhibition (INH) [5] | inhibition (INH) [6] | Drug metabolism [7] | Drug metabolism [8] | Drug metabolism [9] | Retention_time [10] | inhibition (INH) [11] | inhibition (INH) [12] | Drug metabolism [13] |
| --- | --- | --- | --- | --- | --- | --- | --- | --- | --- | --- | --- | --- | --- |
| CC(=O)OC[C@]12[C@H](OC(C)=O)[C@H](OC(C)=O)[C@@H]3[C@@H](OC(C)=O)[C@@]14O[C@@]3(C)COC(=O)c1cccnc1CC[C@@](C)(O)C(=O)O[C@@H]([C@H](OC(=O)c1ccccc1)[C@@H]2OC(C)=O)[C@]4(C)O | Active | Active | Active | Active | Active | Active | – | – | – | – | – | – | – |
| CC(=O)OC[C@]12[C@H](OC(C)=O)[C@H](OC(C)=O)[C@@H]3[C@@H](OC(C)=O)[C@@]14O[C@@]3(C)COC(=O)c1cccnc1CC[C@@](C)(O)C(=O)O[C@@H]([C@H](OC(=O)c1ccoc1)[C@@H]2OC(C)=O)[C@]4(C)O | Active | Not Active | Not Active | Not Active | Not Active | Not Active | Metabolite_Detected | Metabolite_Detected | Metabolite_Detected | 10.55 min | Dose-dependent effect | Active | – |
| CC(=O)OC[C@]12[C@H](OC(C)=O)[C@H](OC(C)=O)[C@@H]3[C@@H](OC(C)=O)[C@@]14O[C@@]3(C)COC(=O)c1cccnc1CC[C@H](C)C(=O)O[C@@H]([C@H](OC(=O)c1ccccc1)[C@@H]2OC(C)=O)[C@]4(C)O | Active | Active | Active | Active | Active | Active | – | – | – | – | – | – | – |

The remaining lines, values ahead:

| inhibition (INH) [1] | inhibition (INH) [2] | inhibition (INH) [3] | inhibition (INH) [4] | inhibition (INH) [5] | inhibition (INH) [6] | Drug metabolism [7] | Drug metabolism [8] | Drug metabolism [9] | Retention_time [10] | inhibition (INH) [11] | inhibition (INH) [12] | Drug metabolism [13] | Compound |
| --- | --- | --- | --- | --- | --- | --- | --- | --- | --- | --- | --- | --- | --- |
| Active | Not Active | Not Active | Not Active | Not Active | Not Active | – | – | – | – | – | Not Active | Metabolite_Notdetected | CC(=O)OC[C@@]12[C@H](OC(C)=O)[C@H](OC(C)=O)[C@@H]3[C@@H](OC(C)=O)[C@@]14O[C@@]3(C)COC(=O)c1cccnc1[C@@H](C)[C@H](C)C(=O)O[C@@H]([C@H](OC(C)=O)[C@@H]2OC(C)=O)[C@]4(C)O |
| Active | Not Active | Not Active | Not Active | Not Active | Not Active | – | – | – | – | – | Not Active | Metabolite_Notdetected | CC(=O)OC[C@]12[C@H](OC(C)=O)[C@H](OC(C)=O)[C@@H]3[C@@H](OC(C)=O)[C@@]14O[C@@]3(C)COC(=O)c1cccnc1CCC(C)C(=O)O[C@@H]([C@H](OC(=O)c1ccoc1)[C@@H]2OC(C)=O)[C@]4(C)O (stereo not given in full) |
